Structures can show the parent of a compound that is named as a salt. Where two headings read alike, the source gives them in different places.
Tests used:
LTB4 = experiment: Reverse passive Arthus pleurisy assay, inflammatory mediator release: LTB4; format: in vivo, rat (male Lewis); conditions: for % Inhibition of LTB4 Synthesis: 3 hours before challenge
Method: The compounds of the invention are further tested in the reverse passive Arthus pleurisy assay to evaluate their effectiveness in inflammatory mediator release and/or the fluid and cellular phases of an inflammatory response.
(§1) This assay is carried out as follows:
A reverse passive Arthus reaction is induced in the pleural cavity of male Lewis rats (150-200 g; fasted overnight prior to use) by the intravenous administration of bovine serum albumin (BSA; 4 mg/0.2 ml) followed 30 minutes later by the injection of rabbit anti-BSA (1 mg/0.2 ml; lyophilized IgG fraction; Organon Teknika, West Chester, Pa.) into the right pleural space under halothane anesthesia. […] Animals are sacrificed at either the time of peak eicosanoid production (i.e. 5 minutes after anti-BSA for immunoreactive TxB2 10 minutes for immunoreactive LTB4, 20 minutes for immunoreactive LTC4) or at the time of peak neutrophil infiltration (4 hours after anti-BSA) by CO2 inhalation. The pleural cavity is then exposed, the fluid exudate removed by gentle vacuum aspiration and the volume of exudate is recorded. For the determination of cellular infiltration, the pleural cavity is rinsed with 3 ml of 0.1% EDTA in sterile saline, and the recovered wash is pooled with the exudate. Cell number is determined on a model ZBI Coulter counter. For determination of eicosanoid production, undiluted pleural exudate is microfuged and the supernatant is extracted with ethanol (8-10 times volume). Extracts are either stored at -20° C., or are evaporated to dryness under a stream of N2 and reconstituted in radioimmunoassay (RIA) buffer.
Eicosanoids are quantitated by RIA according to the procedure specified by the RIA kit manufacturer (Advanced Magnetics, Cambridge, Mass.). Briefly, 100 μl of ^3 H-labeled eicosanoid and 100 μl of specific antibody are sequentially added to 100 μl of extracted pleural exudate in BGG -phosphate buffer which contains 0.01 M phosphate, 0.1% bovine gamma globulin and 0.1% sodium azide at pH 7.0. Antibody-bound eicosanoid is separated from unbound eicosanoid by the addition of 750 μl of dextran (0.4%)-coated charcoal (0.4% Norit A) containing 0.1% sodium azide. The mixture is centrifuged at 2000 RPM at 5° C. for 15 minutes to pellet the charcoal and adsorbed unbound eicosanoid. Antibody-bound labeled eicosanoid is quantitated by counting in a liquid scintillation counter, and is correlated to concentration by a standard curve.
Inflammatory cells are expressed as 10^6 cells/ml, pleural exudate is expressed as ml of fluid, and the amount of eicosanoids in the pleural cavity is expressed as ng/ml of exudate. Mean ±S.E.M. is determined for each group. Percent inhibition (% I) of cell number, exudate volume and eicosanoid production is calculated for vehicle-treated control groups, and the responses in drug-treated rats are then expressed as the mean % I of the control. […] Exp. Ther., 96, 99-113 (1949).

[1] = tested on: 5-lipoxygenase in human whole blood; experiment: Inhibition of 5-lipoxygenase in human whole blood (LTB4); format: cell-based
Method: The assay of this Example measures the ability of the compounds tested to inhibit 5-lipoxygenase in human whole blood.
as §1
Blood is obtained in 50-100 ml quantities from male donors. White blood cell counts and differentials are made. Two ml of blood are placed in a 15 ml polypropylene test tube. Compounds are solubilized in dimethylsulfoxide and diluted 1:10 in 10% bovine serum albumin in phosphate buffered saline, pH 7.4 resulting in a final dimethylsulfoxide concentration of 0.1% in the blood. Then, compounds are added to the blood in a shaking water bath at 37° C. for 10 minutes prior to the addition of 30 μM calcium ionophore (A23187; Sigma). After ionophore administration, whole blood samples are mixed and incubated for 20 minutes at […] in a shaking water bath. Incubation is terminated by placing samples in an ice bath and immediately adding ethylene glycol-bis-(β-aminoethyl ether)-N,N,N',N'-tetraacetic acid (10 mM). Samples are mixed and centrifuged at 1200×g for 15 minutes at 4° C. Preparation of samples for evaluation by RIA or ELISA is carried out by the following protocol. Plasma is removed from sample tubes, placed in 15 ml polypropylene test tubes containing 8 ml methanol, and then vortexed to precipitate protein. Samples are stored at -70° C. overnight. The next day, samples are centrifuged at 200×g for 15 minutes at 4° C. to pellet the precipitate. Samples are dried in a Savant speed vac concentrator, reconstituted to original volume with ice cold RIA or ELISA buffer, and stored at -70° C. until assayed. The assay for eicosanoids (LTB4, TxB2, and PGE2) is performed as described by the manufacturer of the [^3 H]-RIA kit or ELISA kit (LTB4 -Amersham, TxB2 and PGE2 - Caymen Chemical).
The total eicosanoid level in 2 ml of blood is calculated and reported as ng/10^6 neutrophils. […] Drug effects are expressed as percent change from control values.
Compounds tested in vitro are solubilized in dimethylsulfoxide and diluted 1:10 in 10% bovine serum albumin in phosphate buffer saline resulting in a final dimethylsulfoxide concentration of 0.1% in the blood.

[2] = target: T1, LTD4-induced contractions of isolated guinea pig trachea (Cavia porcellus, UniProt Q2NNR5); experiment: In vitro isolated guinea pig trachea assay, LTD4 antagonist activity; design: species or system guinea pig (male Hartley); conditions: 1 × 10^-5 M
T1 construct: isolated guinea pig trachea; from tissue; host or cells: tracheal rings of male Hartley guinea pigs
T1 sequence (Q2NNR5 1-340): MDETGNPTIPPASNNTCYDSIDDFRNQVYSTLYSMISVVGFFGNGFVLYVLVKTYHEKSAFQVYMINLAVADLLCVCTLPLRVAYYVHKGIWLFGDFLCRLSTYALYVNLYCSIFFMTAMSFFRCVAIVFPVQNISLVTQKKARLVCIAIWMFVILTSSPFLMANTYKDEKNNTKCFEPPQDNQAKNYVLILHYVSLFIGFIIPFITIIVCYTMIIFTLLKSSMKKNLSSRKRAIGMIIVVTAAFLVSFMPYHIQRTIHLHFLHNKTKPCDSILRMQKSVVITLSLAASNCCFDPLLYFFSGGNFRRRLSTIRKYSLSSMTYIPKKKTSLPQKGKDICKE
Method: The LTD4 antagonist activity of the compounds of the invention is assessed in the in vitro isolated guinea pig trachea assay. This assay is carried out as follows: Male Hartley guinea pigs (350-400 g) are euthanized by a blow to the head, the neck is opened and the trachea removed. The trachea is maintained in aerated physiological salt solution, cleared of connective tissue and fat and cut into rings approximately 2 mm in width (usually containing two cartilaginous segments per ring). Two pieces of silk suture are then passed through the lumen of the tracheal ting and are tied around the cartilage, one on each side of the trachealis muscle. The tracheal ring is suspended between a glass hook and a force displacement transducer in a 10 ml organ bath for measurement of isometric tension. […] The tracheal rings are maintained at 2 g resting tension and equilibrated for 45 minutes (with frequent washing and readjustment of resting tension). The tracheal […] contracted by the addition of carbachol (3×10^-6 M), to determine tissue responsiveness and establish a reference contraction. On attainment of a stable level of contraction (approximately 30 minutes), the tissues are washed several times until baseline tension has been restored and the re-equilibrated for 30 minutes. The tissues are then incubated for 45 minutes with a test antiagonist (either 1×10^-6 M or 1×10^-5 M) or 10 μl of an appropriate solvent control (control, nontreated). One tissue in each group serves as the control. Twenty minutes prior to the construction of the LTD4 cumulative concentration-response curve, L-[…]×10^-2 M final bath concentration) is added to inhibit bioconversion of LTD4 to LTE4. Only one LTD4 concentration-response curve is constructed in each tissue. All responses to LTD4 in an individual tissue are measured as a percentage of the reference contraction of that tissue to carbachol. LTD4 antagonist activity is determined by comparison of the concentration response curves of LTD4 in the presence and absence of antagonist. Assessment of the relative rightward shift of the antagonist treated curve relative to the solvent (control) treated tissue is calculated as a concentration ratio (Eq. A) and used in subsequent calculations to derive an antagonist pKB value (Eqs. B and C). […] If a compound is found to be active and/or depress the maximal response to LTD4, then a range of concentrations of the test compound should be used generating multiple concentration ratios which would then be used to perform a Schild analysis, and determination of a pA2 value where appropriate.

Row | Structure (SMILES) | % Inhibition of LTB4 Synthesis (LTB4; 25 mg/kg p.o.) [%] | % Inhibition of LTB4 ([1]; at 25 μM) [%] | Kb [2] [µM] | IC50 [1] [µM] | also measured
1 | O=C(O)Cc1ccc(-c2ccc(OCc3ccc4ccccc4n3)cc2)c(F)c1 [Example 2, 2-Fluoro-4'-(2-quinolinylmethoxy)-[1,1'-biphenyl]-4-acetic acid] | 34 | 5 | 0.631 | – | –
2 | CC(C)N(O)C(=O)Cc1ccc(-c2ccc(OCc3nc4ccccc4s3)cc2)cc1 [Example 15, N-Hydroxy-N-isopropyl-4'-(2-benzothiazolymethoxy)[1,1'-biphenyl]-4-acetamide] | – | 77 | > 10 | – | % Inhibition of LTB4 Synthesis (LTB4; 10 mg/kg p.o.): 12%
3 | CC(C(=O)N(C)O)c1ccc(-c2ccc(OCc3nc4ccccc4s3)cc2)cc1 (stereo not drawn) [Example 16, N-Hydroxy-N,α-dimethyl-4'-(2-benzothiazolylmethoxy)[1,1'-biphenyl]-4-acetamide] | 46 | 72 | – | 8.3 | –
4 | CC(C(=O)N(C)O)c1ccc(-c2ccc(OCc3nc4ccccc4s3)cc2)cc1 (centres unmarked) [Example 17, N-Hydroxy-N.,a,-dimethyl-4'-(2-benzothiazolylmethoxy)[1,1'-biphenyl]-4-acetamide, sodium salt, methanol solvate] | 37 | – | > 3.16 | – | –
5 | CN(O)C(=O)Cc1ccc(-c2ccc(OCc3csc(-c4ccccc4)n3)cc2)cc1 [Example 18] | 32 | 97 | > 7.94 | 0.5 | –
6 | CC(C)N(O)C(=O)Cc1ccc(-c2ccc(OCc3csc(-c4ccccc4)n3)cc2)cc1 [Example 20, N-Hydroxy-N-isopropyl-4'-[(2-phenylthiazol-4yl)methoxy][1,1'-biphenyl]-4-acetamide] | 19 | 93 | – | – | pKB [2]: < 5.2
7 | CC(C(=O)N(C)O)c1ccc(-c2ccc(OCc3csc(-c4ccccc4)n3)cc2)cc1 (stereo not drawn) [Example 22, N-Hydroxy-N,α-dimethyl-4'-[(2-phenylthiazol-4-yl)methoxy][1,1'-biphenyl]-4-acetamide,sodium salt, hydrate] | – | – | 5.01 | – | % Inhibition of LTB4 Synthesis (LTB4; 25 mg/kg p.o., sodium salt, hydrate): 37%; % Inhibition of LTB4 ([1]; at 25 μM, sodium salt, hydrate): 74%; IC50 ([1]; sodium salt, hydrate): 9 µM
8 | CC(C(=O)N(C)O)c1ccc(-c2ccc(OCc3nc4ccccc4n3C)cc2)cc1 (stereo not drawn) [Example 24, N-Hlydroxy-N,α-dimethyl-4'-[(1-methyl-1H-benzimidazol-2-yl)methoxy]-[1,1'-biphenyl]-4-acetamide, hydrochloride salt] | 56 | – | 1 | – | –
9 | CN(O)C(=O)Cc1ccc(-c2ccc(OCc3nc4ccccc4s3)cc2)c(F)c1 [Example 26] | 7 | 86 | > 10 | 1.3 | –
10 | CN(O)C(=O)Cc1cccc(C(=O)c2ccc(OCc3nc4ccccc4s3)cc2)c1 [Example 30, 2-{3-[4-(Benzothiazol-2-ylmethoxy)-benzoyl]-phenyl}-N-hydroxy-N-methyl-4-acetamide 0,6 ethyl acetate solvate] | 21 | – | – | 0.98 | % Inhibition of LTB4 ([1]; at 10 μM): 96%
11 | CC(c1ccc(-c2ccc(OCc3nc4ccccc4s3)cc2)cc1)N(O)C(N)=O (centres unmarked) [Example 33, 1-{1-[4'-(Benzothiazol-2-ylmethoxy)biphenyl-4-yl]-ethyl}-1-hydroxy-urea] | 2 | – | > 10 | – | % Inhibition of LTB4 ([1]; at 10 μM): 10%
12 | CC(C(=O)O)c1cccc(C(=O)c2ccccc2)c1 (centres unmarked) [ketoprofen, reference compound] | – | – | – | – | % Inh LTB4 (LTB4; 10 mg/kg p.o., standard drugs): 35%

— patent US5364944A, “Substituted benzoylbenzene-, biphenyl- and 2-oxazole- alkanoic acid compounds” (American Home Products Corporation, priority 1993, dated 1994)
